# Source: US20080153903A1, “INHIBITORS OF PROTEIN KINASE C-DELTA FOR THE TREATMENT OF GLAUCOMA” (ALCON MANUFACTURING, LTD., priority 2006, published 2008)
# What was measured:
# [1] = test system: GTM-3 cells; assay: Fibronectin ELISA of culture supernatants from treated GTM-3 cell monolayers (TGFβ2 mediated responses); type: cell-based, human; conditions: GTM-3 monolayers, 24 h; for TGFβ2-stimulated fibronectin levels in supernatants: FIG. 1
# Description: FIG. 1A, FIG. 1B and FIG. 1C depict the effects of various amounts of PKC inhibitors on basal and stimulated (TGFβ2) fibronectin content in supernatants collected from treated monolayers of GTM-3 cells.
# (§1) Cultured transformed human TM cells (“GTM-3”; see Pang I H, et al., 1994) were grown in a growth medium consisting of Dulbecco's modified Eagle's medium with Glutamax I (Gibco/Invitrogen, Grand Island, N.Y.) supplemented with 10% fetal bovine serum (Hyclone, Logan, Utah) and 50 μg/mL gentamicin (Gibco/Invitrogen). For assay, cultures were enzymatically-dissociated (TrypLE Express; Gibco/Invitrogen) then seeded into 24-well plates (Corning Costar, Acton, Mass.) and allowed to grow until monolayers reached approximately 90-95% confluence. Culture medium was then replaced with 0.25 mL serum- and antibiotic-free medium containing the appropriate test compound(s). Cells were incubated 24 h, at 5% CO2 and 37° C. Aliquots of culture supernatants were then assayed using ELISA kits for fibronectin (AssayPro, St. Charles, Mo.), PAI-I (American Diagnostica, Stamford, Conn.) and procollagen Type I C-peptide (TaKaRa Bio, Shiga, Japan).
# (§2) The test compounds used were rottlerin (a specific PKC-delta inhibitor), Gö6976 (inhibits the calcium-dependent PKC isoforms alpha, beta, & mu) and bisindolylmaleimide I (a broad-spectrum PKC inhibitor).
# [2] = test system: GTM-3 cells; assay: PAI-I ELISA of culture supernatants from treated GTM-3 cell monolayers (TGFβ2 mediated responses); type: cell-based, human; conditions: GTM-3 monolayers, 24 h; for TGFβ2-stimulated PAI-I levels in supernatants: FIG. 2
# Description: FIG. 2A, FIG. 2B and FIG. 2C depicts the effects of PKC inhibition on basal and stimulated (TGFβ2) PAI-I content in supernatants collected from treated monolayers of GTM-3 cells.
# as §1, §2
SMILES,"fibronectin levels in supernatants ([1]; basal and TGFβ2-stimulated, tested concentrations, FIG. 1C)",TGFβ2-stimulated PAI-I levels in supernatants [2],TGFβ2-stimulated fibronectin levels in supernatants [1],"basal fibronectin content in supernatants ([1]; basal, FIG. 1B)","basal PAI-I content in supernatants ([2]; basal, FIG. 2B)","basal fibronectin in supernatants ([1]; basal, 10 uM dose, FIG. 1A)"
"CN(C)CCCn1cc(C2=C(c3c[nH]c4ccccc34)C(=O)NC2=O)c2ccccc21 [Bis I, bisindolylmaleimide I]",lack of effect,reduced TGFβ2-stimulated PAI-I levels only at the 100 nM dose,–,–,–,–
Cn1c2ccccc2c2c3c(c4c5ccccc5n(CCC#N)c4c21)CNC3=O [Gö6976],–,without effect,without effect,without effect,without effect,–
CC(=O)c1c(O)c(C)c(O)c(Cc2c(O)c3c(c(C(=O)/C=C/c4ccccc4)c2O)OC(C)(C)C=C3)c1O [rottlerin],–,dose-dependently reduces TGFβ2-stimulated PAI-I levels,effectively reduces TGFβ2-stimulated fibronectin levels at both tested concentrations,–,–,effectively reduced basal fibronectin
